From ChEMBL document CHEMBL3271974, “Synthesis of the antileukemic compound N,N(11)-[5-[bis(2-chloroethyl)amino]-1, 3-phenylene]bisurea” (J Med Chem, 1976)

Columns and labels:
P388 [1] = assay: Antitumor activity against mouse P388 cells allografted in mouse assessed as increase in survival rate at 225 mg/kg relative to control; format: functional
Mus musculus [2] = assay: Toxicity in mouse allografted with mouse P388 cells at 225 mg/kg; format: organism-based; set-up: dose 225 mg/kg; conditions: in vivo
P388 [3] = assay: Antitumor activity against mouse P388 cells allografted in mouse assessed as increase in survival rate at 120 mg/kg relative to control; format: functional
Mus musculus [4] = assay: Toxicity in mouse allografted with mouse P388 cells at 120 mg/kg; format: organism-based; set-up: dose 120 mg/kg; conditions: in vivo

SMILES	T/C (P388 [1])	Activity (Mus musculus [2])	T/C (P388 [3])	Activity (Mus musculus [4])
CC(=O)Nc1cc(NC(C)=O)cc(N(CCCl)CCCl)c1	196%	Non-toxic		
NC(=O)Nc1cc(NC(N)=O)cc(N(CCCl)CCCl)c1			194%	Non-toxic
